The numbers were not newly measured in patent publication US12150969B2, “Synthetically enveloped virus” (priority 2016, dated 2024), which cites them from elsewhere.

Structures are written as SMILES.

The test system of data set [1] is Ras-dependent tumor growth. The settings on record: established cancer models.

Consider `CC(C)=CCC/C(C)=C/CC/C(C)=C/CSc1ccccc1C(=O)O` [FTS, S-trans, trans-farnesylthiosalicylic acid], for which, in the data set with Ras, the Ras antagonist activity entry is “potent and especially nontoxic Ras antagonist”. Further, the “tumor growth and toxicity in animals” value in data set [1] is on record as “inhibition of tumor growth in animals with no adverse toxicity”.
